The values that follow come from patent publication US10647713B2 (Nimbus Lakshmi, Inc., priority 2016, dated 2020).

A value given as a limit tells only on which side of the number the result lay.

The term Kd denotes the equilibrium constant for the complex coming apart.

Chain of human TYK2 (JH2domain-pseudokinase) (P29597 556-888): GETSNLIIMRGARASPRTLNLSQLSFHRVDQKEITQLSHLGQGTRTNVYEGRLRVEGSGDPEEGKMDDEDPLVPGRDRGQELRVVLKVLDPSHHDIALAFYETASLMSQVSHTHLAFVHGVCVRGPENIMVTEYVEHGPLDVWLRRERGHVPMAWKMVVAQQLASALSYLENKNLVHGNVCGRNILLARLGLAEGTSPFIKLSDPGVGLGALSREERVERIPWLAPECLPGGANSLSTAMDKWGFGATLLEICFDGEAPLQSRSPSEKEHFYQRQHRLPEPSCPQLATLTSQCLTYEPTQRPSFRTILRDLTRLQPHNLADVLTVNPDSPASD

This experiment addresses human TYK2 (JH2domain-pseudokinase) (Homo sapiens (Human), UniProt P29597). In words: TYK2 JH2 Domain Binding Assay (KINOMEscan, DiscoveRx). The conditions noted are these: 11-point dilution, duplicate. As to the method:
Binding constants for compounds of the present invention against the JH2 domain were determined by the following protocol for a KINOMEscan® assay (DiscoveRx). A fusion protein of a partial length construct of human TYK2 (JH2domain-pseudokinase) (amino acids G556 to D888 based on reference sequence NP_003322.3) and the DNA binding domain of NFkB was expressed in transiently transfected HEK293 cells. From these HEK 293 cells, extracts were prepared in M-PER extraction buffer (Pierce) in the presence of Protease Inhibitor Cocktail Complete (Roche) and Phosphatase Inhibitor Cocktail Set II (Merck) per manufacturers' instructions. The TYK2 (JH2domain-pseudokinase) fusion protein was labeled with a chimeric double-stranded DNA tag containing the NFkB binding site (5′-GGGAATTCCC-3′) fused to an amplicon for qPCR readout, which was added directly to the expression extract (the final concentration of DNA-tag in the binding reaction is 0.1 nM).
Streptavidin-coated magnetic beads (Dynal M280) were treated with a biotinylated small molecule ligand for 30 minutes at room temperature to generate affinity resins the binding assays. The liganded beads were blocked with excess biotin and washed with blocking buffer (SeaBlock (Pierce), 1% BSA, 0.05% Tween 20, 1 mM DTT) to remove unbound ligand and to reduce nonspecific binding.
The binding reaction was assembled by combining 16 μl of DNA-tagged kinase extract, 3.8 μl liganded affinity beads, and 0.18 μl test compound (PBS/0.05% Tween 20/10 mM DTT/0.1% BSA/2 μg/ml sonicated salmon sperm DNA)]. Extracts were used directly in binding assays without any enzyme purification steps at a ≥10,000-fold overall stock dilution (final DNA-tagged enzyme concentration <0.1 nM). Extracts were loaded with DNA-tag and diluted into the binding reaction in a two step process. First extracts were diluted 1:100 in 1× binding buffer (PBS/0.05% Tween 20/10 mM DTT/0.1% BSA/2 μg/ml sonicated salmon sperm DNA) containing 10 nM DNA-tag. This dilution was allowed to equilibrate at room temperature for 15 minutes and then subsequently diluted 1:100 in 1× binding buffer. Test compounds were prepared as 111× stocks in 100% DMSO. Kds were determined using an 11-point 3-fold compound dilution series with three DMSO control points. All compounds for Kd measurements are distributed by acoustic transfer (non-contact dispensing) in 100% DMSO. The compounds were then diluted directly into the assays such that the final concentration of DMSO was 0.9%. All reactions performed in polypropylene 384-well plates. Each was a final volume of 0.02 mL. Assays were incubated with shaking for 1 hour at room temperature. Then the beads were pelleted and washed with wash buffer (1×PBS, 0.05% Tween 20) to remove displaced kinase and test compound. The washed based were re-suspended in elution buffer (1×PBS, 0.05% Tween 20, 0.5 μM non-biotinylated affinity ligand) and incubated at room temperature with shaking for 30 minutes. The kinase concentration in the eluates was measured by qPCR. qPCR reactions were assembled by adding 2.5 μL of kinase eluate to 7.5 μL of qPCR master mix containing 0.15 μM amplicon primers and 0.15 μM amplicon probe. The qPCR protocol consisted of a 10 minute hot start at 95° C., followed by 35 cycles of 95° C. for 15 seconds, 60° C. for 1 minute.
Test compounds were prepared as 111× stocks in 100% DMSO. Kds were determined using an 11-point 3-fold compound dilution series with three DMSO control points. All compounds for Kd measurements are distributed by acoustic transfer (non-contact dispensing) in 100% DMSO. The compounds were then diluted directly into the assays such that the final concentration of DMSO was 0.9%. The Kds were determined using a compound top concentration of 30,000 nM. Kd measurements were performed in duplicate.
Binding constants (Kds) were calculated with a standard dose-response curve using the Hill equation: […]
The Hill Slope was set to −1. […]
Compound `CN(c1cc(-c2cnn(C)c2)ccc1Nc1cc(NC(=O)[C@@H]2C[C@@H]2F)nc2[nH]c(C(F)F)nc12)S(C)(=O)=O` (stereo in doubt) [Compound I-207] came in with a Kd of 0.1 to 0.5 nM. `COc1c(Nc2cc(NC(=O)[C@@H]3C[C@@H]3F)nc3[nH]c(C(F)F)nc23)cccc1-c1ncn(C)n1` (stereo in doubt) [I-213, N-(2-(difluoromethyl)-7-((2-methoxy-3-(1-methyl-1H-1,2,4-triazol-3-yl)phenyl)amino)-3H-imidazo[4,5-b]pyridin-5-yl)-2-fluorocyclopropane-1-carboxamide] had a Kd of 0.1 to 0.5 nM. `CN(c1cc(-c2cnn(C)c2)ccc1Nc1cc(NC(=O)[C@@H]2C[C@@H]2F)nc2[nH]c(C(F)F)nc12)S(C)(=O)=O` (stereo in doubt) [I-235, (1S,2S)—N-(2-(difluoromethyl)-7-((4-(1-methyl-1H-pyrazol-4-yl)-2-(N-methylmethylsulfonamido)phenyl)amino)-3H-imidazo[4,5-b]pyridin-5-yl)-2-fluorocyclopropane-1-carboxamide] had a Kd of less than 0.1 nM. Compound `Cc1nc2c(Nc3ccc(C4CCCOC4)cc3S(C)(=O)=O)cc(NC(=O)C3CC3)nc2[nH]1` (stereo in doubt) [I-254, (R)—N-(2-methyl-7-((2-(methylsulfonyl)-4-(tetrahydro-2H-pyran-3-yl)phenyl)amino)-3H-imidazo[4,5-b]pyridin-5-yl)cyclopropanecarboxamide] yielded a Kd of 0.5 to 1 nM. `Cc1nc2c(Nc3ccc([C@@H]4CCCCO4)cc3S(C)(=O)=O)cc(NC(=O)[C@@H]3CC3(F)F)nc2[nH]1` (stereo in doubt) [I-324, 2,2-difluoro-N-(2-methyl-7-((2-(methylsulfonyl)-4-((R)-tetrahydro-2H-pyran-2-yl)phenyl)amino)-3H-imidazo[4,5-b]pyridin-5-yl)cyclopropane-1-carboxamide] displayed a Kd of 1 to 10 nM.

On to `COc1c(Nc2cc(NC(=O)C3C[C@@H]3F)nc3[nH]c(C)nc23)cccc1-c1ncn(C)n1` (stereo in doubt) [I-368, 2-fluoro-N-(7-((2-methoxy-3-(1-methyl-1H-1,2,4-triazol-3-yl)phenyl)amino)-2-methyl-3H-imidazo[4,5-b]pyridin-5-yl)cyclopropane-1-carboxamide], for which the Kd lay in the range of 0.5 to 1 nM. The compound `COc1c(Nc2cc(NC(=O)C3C[C@@H]3F)nc3[nH]c(C(F)F)nc23)cccc1-c1ncn(C)n1` (stereo in doubt) [I-374, N-(2-(difluoromethyl)-7-((2-methoxy-3-(1-methyl-1H-1,2,4-triazol-3-yl)phenyl)amino)-3H-imidazo[4,5-b]pyridin-5-yl)-2-fluorocyclopropane-1-carboxamide] yielded a Kd of 1 to 10 nM. As for `CN=S(C)(=O)c1ccccc1Nc1cc(NC(=O)C2CC2)nc2[nH]c(C)nc12` (stereo in doubt) [I-548, (S)—N-(7-((2-(N,S-dimethylsulfonimidoyl)phenyl)amino)-2-methyl-3H-imidazo[4,5-b]pyridin-5-yl)cyclopropanecarboxamide], the Kd was in the range of 0.1 to 0.5 nM. `Cc1nc2c(Nc3ccc(C4CCCCO4)cc3S(C)(=O)=O)cc(Nc3cc4n(n3)CCOC4)nc2[nH]1` (stereo in doubt) [I-586, (R)—N5-(6,7-dihydro-4H-pyrazolo[5,1-c][1,4]oxazin-2-yl)-2-methyl-N7-(2-(methylsulfonyl)-4-(tetrahydro-2H-pyran-2-yl)phenyl)-3H-imidazo[4,5-b]pyridine-5,7-diamine] showed a Kd of 0.1 to 0.5 nM. `CS(=O)(=O)c1cc(C2COCCO2)ccc1Nc1cc(NC(=O)C2CC2)nc2[nH]c(C(F)F)nc12` (stereo in doubt) [I-613, (R)—N-(7-((4-(1,4-dioxan-2-yl)-2-(methylsulfonyl)phenyl)amino)-2-(difluoromethyl)-3H-imidazo[4,5-b]pyridin-5-yl)cyclopropanecarboxamide] had a Kd of 0.1 to 0.5 nM.
